Earlier results in US12329862B2, “Transdermal therapeutic system containing asenapine” (LTS LOHMANN THERAPIE-SYSTEME AG, priority 2018, dated 2025).

**Q.** Which bioavailability (if ingested) does the source give for CN1C[C@H]2c3ccccc3Oc3ccc(Cl)cc3[C@@H]2C1 (relative stereo) [asenapine, (3aRS,12bRS)-rel-5-chloro-2,3,3a,12b-tetrahydro-2-methyl-1H-dibenz[2,3:6,7]oxepino[4,5-c]pyrrole] here?
**A.** Its bioavailability is under 2%.

**Q.** What about the terminal disposition half-life (sublingual administration, therapeutic doses) of the same compound?
**A.** Its terminal disposition half-life is at least 24 h.

**Q.** And the “Somnolence and anxiety, share of the patients” value (very common side effects)?
**A.** The value was at least 10%.
